# Experimental data as given in US20260144875A1, “COMPOSITIONS AND METHODS FOR CROSSLINKING STRUCTURAL PROTEINS” (ADS Therapeutics LLC, priority 2022, published 2026).
# Assays:
# [1] = Solubility of RTB in MCT, F6H8 or mixed solvents, HPLC; format: physicochemical; settings: 25° C.
# Method: Solubility of riboflavin tetrabutyrate (RTB) was tested in medium chain triglycerides (MCT), F6H8, or mixtures of MCT/F6H8 at room temperature, and in F6H8 at 100° C. Solubility was analyzed as in Example 1a.
# [2] = Stability of riboflavin tetrabutyrate in organic solvents; format: physicochemical; settings: RTB
# Text: The stability of riboflavin tetrabutyrate (RTB) in various solvents was investigated. Using similar sample analysis methods described in Examples 1a-1c, the stability of RTB in formulations of MCT, F6H8, and combinations were monitored at various temperatures.
# [3] = Impurities from riboflavin tetrabutyrate in organic solvents; format: physicochemical; settings: 25° C.; for Impur. 0 hr / Impur. 1 Month / Impur. 14 Days: RTB
# Method: The impurities present in MCT, F6H8, or combinations, with riboflavin tetrabutyrate (RTB), at 25° C. was investigated. Using similar sample analysis methods described in Examples 1a-1c, the impurities were determined.
# porcine corneas [4] = experiment: Ex vivo study (Dresden method), RTB-UVA crosslinking, static stress-strain, de-epithelialized corneas; settings: de-epithelialized porcine corneal strips; 0.1% RTB in MCT or F6H8 or combination; UVA 370 nm, 3 mW/cm2, 30 minutes
# Method: Fresh porcine cadaver eyes with intact epithelia and clear corneas are retrieved from the local slaughterhouse within 2 to 5 hours post-mortem. The eyes are de-epithelialized mechanically, removing the corneoscleral ring with scissors. […] Because of the natural thickness of the porcine cornea, only 1 corneal strip with clearly cut perpendicular edges could be prepared properly from each eye. Half of the corneas are treated with RTB-UVA irradiation, and half are used as untreated controls. Using ultrasound pachymetry (Pachette, Technomed), the central corneal thickness is determined in the eyes. […]
# (§1) The porcine corneal strips are clamped horizontally at a distance of 8.0 mm between the jaws of a commercially available microcomputer-controlled biomaterial tester (Minimat, Rheometric Scientific GmbH. To include the physiological stress range, a prestress of 5×10^3 Pa (1 Pa=1 N/m2) is used, which requires a force of 20 mN in porcine corneas. The strain is then increased linearly with a velocity of 1.5 mm min-1, and the stress is measured up to 2×10^5 Pa. The stress-strain values are fitted by an exponential function σ=A exp (BX) using the SPSS-calculation program (SPSS GmbH Software, Munich). Young's modulus (E) is calculated for 4%, 6%, and 8% strain as the gradient of the stress-strain graph (E=dσ/dε=A×B exp (B×ε). […]
# porcine corneas [5] = experiment: Ex vivo RTB-UVA crosslinking, static stress-strain, without de-epithelialization; settings: intact porcine eyes, corneas not de-epithelialized; RTB formulations in MCT or F6H8; UVA radiation
# Method: Starting 5 minutes before the treatment, 0.1% riboflavin tetrabutyrate (RTB) photosensitizer solution (10 mg riboflavin tetrabutyrate in 10 mL MCT or F6H8 or a combination thereof) is dropped on the treated strips and MCT or F6H8 or combination solution is dropped on the control strips at 5-minute intervals. Ultraviolet A irradiation (370 nm) is applied using 2 double UVA diodes (Roithner Lasertechnik) with an irradiance of 3 mW/cm2 at a distance of 1.0 cm from the cornea for 30 minutes. This is equal to a dose of 5.4 J/cm^2. The parameters of exposure are chosen according to the treatment procedure used in keratoconus patients. Three 1.3 V accumulators are used as a power generator. […]
# as §1, with “Munich).” for “Munich). Young's modulus (E) is calculated for 4%, 6%, and 8% strain as the gradient of the stress-strain graph (E=dσ/dε=A×B exp (B×ε).”
# [6] = Sample X1, 0.2%, MCT 100%, F6H8 0%, 2-8° C.
# [7] = Sample X2, 0.2%, MCT 100%, F6H8 0%, 25° C.
# [8] = Sample X3, 0.2%, MCT 100%, F6H8 0%, 40° C.
# [9] = Sample X4, 0.1%, MCT 70%, F6H8 30%, 2-8° C.
# [10] = Sample X5, 0.1%, MCT 70%, F6H8 30%, 25° C.
# [11] = Sample X6, 0.1%, MCT 70%, F6H8 30%, 40° C.
# [12] = Sample X7, 0.1%, MCT 50%, F6H8 50%, 2-8° C.
# [13] = Sample X8, 0.1%, MCT 50%, F6H8 50%, 25° C.
# [14] = Sample X9, 0.1%, MCT 50%, F6H8 50%, 40° C.
# [15] = Sample YB1, 0.2%, MCT 100%, F6H8 0%
# [16] = Sample YB2, 0.1%, MCT 70%, F6H8 30%
# [17] = Sample YB3, 0.1%, MCT 50%, F6H8 50%
smiles,measurement,setting,value
"CCCC(=O)OC[C@@H](OC(=O)CCC)[C@@H](OC(=O)CCC)[C@H](Cn1c2nc(=O)[nH]c(=O)c-2nc2cc(C)c(C)cc21)OC(=O)CCC [RTB, (2R,3S,4S)-5-(7,8-dimethyl-2,4-dioxo-3,4-dihydrobenzo[g]pteridin-10(2H)-yl) pentane-1,2,3,4-tetrayl tetrabutyrate]",Solubility,"[1]; Sample B2, MCT 100%, F6H8 0%",3.133 µg/mL
same,Solubility,"[1]; Sample B3, MCT 20%, F6H8 80%",0.316 µg/mL
same,Solubility,"[1]; Sample B4, MCT 50%, F6H8 50%",1.124 µg/mL
same,Solubility,"[1]; Sample B5, MCT 70%, F6H8 30%",1.582 µg/mL
same,Appearance (clear/precip.) 0 hr,[2]; [6],clear
same,Conc. 0 hr,[2]; [6],"2.055, mg/mL"
same,Appearance (clear/precip.) 1 Month,[2]; [6],clear
same,Conc. 1 Month,[2]; [6],"1.832, mg/mL"
same,Appearance (clear/precip.) 14 days,[2]; [6],clear
same,Conc. 14 days,[2]; [6],"1.837, mg/mL"
same,Appearance (clear/precip.) 0 hr,[2]; [7],clear
same,Conc. 0 hr,[2]; [7],"2.055, mg/mL"
same,Appearance (clear/precip.) 1 Month,[2]; [7],clear
same,Conc. 1 Month,[2]; [7],"1.817, mg/mL"
same,Appearance (clear/precip.) 14 days,[2]; [7],clear
same,Conc. 14 days,[2]; [7],"1.888, mg/mL"
same,Appearance (clear/precip.) 0 hr,[2]; [8],clear
same,Conc. 0 hr,[2]; [8],"2.055, mg/mL"
same,Appearance (clear/precip.) 1 Month,[2]; [8],clear
same,Conc. 1 Month,[2]; [8],"1.833, mg/mL"
same,Appearance (clear/precip.) 14 days,[2]; [8],clear
same,Conc. 14 days,[2]; [8],"1.958, mg/mL"
same,Appearance (clear/precip.) 0 hr,[2]; [9],clear
same,Conc. 0 hr,[2]; [9],"1.077, mg/mL"
same,Appearance (clear/precip.) 1 Month,[2]; [9],clear
same,Conc. 1 Month,[2]; [9],"0.960, mg/mL"
same,Appearance (clear/precip.) 14 days,[2]; [9],clear
same,Conc. 14 days,[2]; [9],"1.015, mg/mL"
same,Appearance (clear/precip.) 0 hr,[2]; [10],clear
same,Conc. 0 hr,[2]; [10],"1.077, mg/mL"
same,Appearance (clear/precip.) 1 Month,[2]; [10],clear
same,Conc. 1 Month,[2]; [10],"0.953, mg/mL"
same,Appearance (clear/precip.) 14 days,[2]; [10],clear
same,Conc. 14 days,[2]; [10],"1.012, mg/mL"
same,Appearance (clear/precip.) 0 hr,[2]; [11],clear
same,Conc. 0 hr,[2]; [11],"1.077, mg/mL"
same,Appearance (clear/precip.) 1 Month,[2]; [11],clear
same,Conc. 1 Month,[2]; [11],"0.962, mg/mL"
same,Appearance (clear/precip.) 14 days,[2]; [11],clear
same,Conc. 14 days,[2]; [11],"1.027, mg/mL"
same,Appearance (clear/precip.) 0 hr,[2]; [12],clear
same,Conc. 0 hr,[2]; [12],"1.123, mg/mL"
same,Appearance (clear/precip.) 1 Month,[2]; [12],precip.
same,Conc. 1 Month,[2]; [12],"0.848, mg/mL"
same,Appearance (clear/precip.) 14 days,[2]; [12],precip.
same,Conc. 14 days,[2]; [12],"0.976, mg/mL"
same,Appearance (clear/precip.) 0 hr,[2]; [13],clear
same,Conc. 0 hr,[2]; [13],"1.123, mg/mL"
same,Appearance (clear/precip.) 1 Month,[2]; [13],clear
same,Conc. 1 Month,[2]; [13],"0.993, mg/mL"
same,Appearance (clear/precip.) 14 days,[2]; [13],clear
same,Conc. 14 days,[2]; [13],"1.056, mg/mL"
same,Appearance (clear/precip.) 0 hr,[2]; [14],clear
same,Conc. 0 hr,[2]; [14],"1.123, mg/mL"
same,Appearance (clear/precip.) 1 Month,[2]; [14],clear
same,Conc. 1 Month,[2]; [14],"0.984, mg/mL"
same,Appearance (clear/precip.) 14 days,[2]; [14],clear
same,Conc. 14 days,[2]; [14],"1.054, mg/mL"
same,RTB 0 hr,[3]; [15],98.76%
same,RTB 1 Month,[3]; [15],98.71%
same,RTB 14 Days,[3]; [15],98.76%
same,Impur. 0 hr,[3]; [15],1.16%
same,Impur. 1 Month,[3]; [15],1.15%
same,Impur. 14 Days,[3]; [15],1.16%
same,RTB 0 hr,[3]; [16],98.85%
same,RTB 1 Month,[3]; [16],99.05%
same,RTB 14 Days,[3]; [16],98.94%
same,Impur. 0 hr,[3]; [16],1.14%
same,Impur. 1 Month,[3]; [16],0.95%
same,Impur. 14 Days,[3]; [16],1.06%
same,RTB 0 hr,[3]; [17],98.87%
same,RTB 1 Month,[3]; [17],98.99%
same,RTB 14 Days,[3]; [17],98.92%
same,Impur. 0 hr,[3]; [17],1.13%
same,Impur. 1 Month,[3]; [17],1.02%
same,Impur. 14 Days,[3]; [17],1.07%
same,"stress using strain, treated vs untreated corneas",porcine corneas [4],greater in the treated corneas
same,"stress using strain, treated vs untreated corneas",porcine corneas [5],greater in the treated corneas
